The values below come from patent EP3917907B1, “MODULATORS OF POTASSIUM ION CHANNELS AND USES THEREOF” (Universitá Degli Studi Di Salerno, priority 2019, dated 2020).

The target of series [1] is T1, Kv7.2 (Homo sapiens, UniProt O43526).
T1 construct: expressed in transfected cells; host or cells: CHO cells (ATCC CRL-9618), transient transfection, pcDNA3.1(+)
Briefly: Whole-cell patch-clamp on CHO cells transiently expressing Kv7.2. It counts as cell-based. Conditions: CHO cells, mean±SEM, >1 activating, <1 inhibiting; for Idrug/Ictl at 0 mV: ratio of ramp-evoked Kv7.2 current amplitude in presence and absence of drug at 0 mV; for Idrug/Ictl at -40 mV: ratio of ramp-evoked Kv7.2 current amplitude in presence and absence of drug at -40 mV. The protocol:
According to the experimental protocol, these plasmids were expressed individually or in combination (in particular of Kv7.2 and Kv7.3), together with a plasmid-expressing enhanced green fluorescent protein (Clontech, Palo Alto, CA) used as a transfection marker. Total cDNA in the transfection mixture was kept at 4 µg. CHO cells were grown in 100-mm plastic Petri dishes in Dulbecco's modified Eagle's medium containing 10% fetal bovine serum, nonessential amino acids (0.1 mM), penicillin (50 U/ml), and streptomycin ([…]) in a humidified atmosphere at 37°C with 5% CO2. The cells were plated on glass coverslips coated with poly-L-lysine, and transfected one day after plating with the appropriate cDNA using Lipofectamine 2000 (Life Technologies), according to the manufacturer's protocol.
Currents from CHO cells were recorded at room temperature (20-22°C) 24 hours after trasfection using the whole-cell configuration of the patch-clamp technique, with glass micropipettes of 3-5 MΩ resistance. During the recording, constant perfusion of extracellular solution was maintained. The extracellular solution contained (in mM): 138 NaCl, 2 CaCl2, 5.4 KCl, 1 MgCl2, 10 glucose, and 10 HEPES, at pH 7.4, adjusted with NaOH. The pipette (intracellular) solution contained (in mM): 140 KCl, 2 MgCl2, 10 EGTA, 10 HEPES, 5 Mg^2+-ATP, at pH 7.3-7.4, adjusted with KOH. Currents were recorded using an Axopatch-200A amplifier, filtered at 5 kHz, and digitized using a DigiData 1440A (Molecular Devices). The pCLAMP software (version 10.2, Molecular Devices) was used for data acquisition and analysis. To evaluate the activity of exemplary compounds on Kv7.2 (see Table 1), as well as on Kv7.1, Kv7.2/7.3, Kv7.3 and Kv7.4 channels for selected compounds (see Table 2), the cells were clamped at -80 mV and currents were elicited by 3-s voltage ramps from -80 mV to +20 mV in the presence and absence of each compound. […] The effects of drugs were expressed as shift in the ramp-voltage (ΔV) calculated at 20% of the maximal current (Miceli et al, Proc Natl Acad Sci U S A. 2013, 110(11):4386-91). Curves were fitted using the following equation: y=max/(1+x/EC50)n, where x is the drug concentration, n is the Hill coefficient and max is the maximal value achieved, as previously described (Ambrosino et al, Br J Pharmacol. 2013, 168(6):1430-1444). Data analysis and fit were performed using Sigmaplot (version 12.3).
Ramp-evoked Kv7.2 currents were analyzed by measuring the currents at -40 mV (a membrane potential value close to the activation threshold) and at 0 mV (a membrane potential value at which Kv7.2 conductance is largely saturated). In particular, -40 mV represents the threshold potential for spike initiation and 0 mV represents instead the membrane potential value at which maximal conductance of the channel is achieved.
In Table 1, the effect of exemplary compounds of the invention is expressed as the ratio between current amplitude in the presence (Idrug) and absence (Ictl) of the drug at these two membrane voltages. […]

A short description of series [2]: Solution stability (HPLC, extracellular solution, ambient temperature). The conditions noted are these: percentage of degradation after 6 h at ambient temperature; 100 ppm in extracellular solution pH 7.4. It counts as physicochemical. The protocol:
(§1) In order to study the solution stability and photostability of the potassium channel modulators object of the present invention, a stock solution of the proper analyte (1 mg/mL) in dimethylsulfoxide (DMSO) has been prepared. This solution has been then diluted to a concentration of 100 ppm using extracellular solution containing (in mM): 138 NaCl, 2 CaCl2, 5.4 KCl, 1 MgCl2, 10 glucose, and 10 HEPES, at pH 7.4, adjusted with NaOH. To measure solution stability, the diluted solutions have been maintained at ambient temperature for 6 h. To measure photostability, the diluted solutions have been irradiated for 6 h using a Oriel Sol3A Solar Simulator (Newport corporation, Irvine, CA, USA) with a 12x12 inches output beam. Aliquots of solution have been withdrawn after 6h and analyzed by HPLC using a Kinetex C18, 150 mm × 4.6 mm × 2.6 µm (Phenomenex, Bologna, Italy) as stationary phase and a mobile phase constituted by A: H2O/CH3CN (80:20) and B: CH3CN. Gradient elution has been performed from 20% to 90% of B in 7.50 minutes and from 90% to 20% of B in 1 minute. The pump flux has been set to 1.5 mL/min. Column has been thermostatted at 40°C during analysis. Results are espressed in Table 3 as percentage of degradation of the product calculated as ratio between the peak area of the analyte at time 0 (Pa0) and after 6h (Pa6) using the following formula: % degradation = (Pa0−Pa6)/Pa0 *100. [formula]

Series [3] can be described thus: Photostability (HPLC, solar simulator irradiation). It counts as physicochemical. The conditions noted are these: percentage of degradation after 6 h irradiation with solar simulator; 100 ppm in extracellular solution pH 7.4. The protocol:
as §1

Consider `CCCCCCC(=O)Nc1ccc(NCc2ccc(C(F)(F)F)cc2)c(F)c1N` [N-(2-amino-3-fluoro-4-((4-(trifluoromethyl)benzyl)amino)phenyl)heptanamide], for which, in series [1], the “Idrug/Ictl at 0 mV” value is 1.94±0.12 and the “Idrug/Ictl at -40 mV” value came to 5.76±1.28. Further, the Solution stability entry in series [2] is “A (degradation lower than 20%)”. Besides, the Photostability result in series [3] is recorded as “A (degradation lower than 20%)”.

With `CC(=O)Nc1ccc2c(c1)CCN2Cc1ccc(F)cc1` [N-(1-(4-fluorobenzyl)indolin-5-yl)acetamide], in series [1], the “Idrug/Ictl at 0 mV” value is reported as 1.64±0.20 and the “Idrug/Ictl at -40 mV” value was 1.88±0.14. Besides, in series [2], the Solution stability result is reported as “A (degradation lower than 20%)”. Besides, the Photostability entry in series [3] is on record as “A (degradation lower than 20%)”.

For the compound `O=[N+]([O-])c1cc(Br)ccc1CN1CCc2cc(NS(=O)(=O)C3CCCCC3)ccc21` [N-(1-(4-bromo-2-nitrobenzyl)indolin-5-yl)cyclohexanesulfonamide], in series [1], the “Idrug/Ictl at 0 mV” value came out at 3.09±0.52 and the “Idrug/Ictl at -40 mV” value is reported as 7.27±1.32. Also, the Solution stability result in series [2] was “B (20%< degradation<40%)”. For the same compound, the Photostability result in series [3] is recorded as “C (degradation > 40%)”.

For the compound `CCCCCCS(=O)(=O)Nc1ccc2c(c1)CCN2Cc1ccc(F)cc1` [N-(1-(4-fluorobenzyl)indolin-5-yl)hexane-1-sulfonamide], in series [1], the “Idrug/Ictl at 0 mV” value was found to be 2.18±0.09 and the “Idrug/Ictl at -40 mV” value came out at 2.48±0.20. The Solution stability entry in series [2] is “B (20%< degradation<40%)”. Further, the Photostability entry in series [3] is on record as “C (degradation > 40%)”.

Turning to `CC1(C)[C@H]2CC[C@]1(CS(=O)(=O)Nc1ccc3c(c1)CCN3Cc1ccc(F)cc1)C(=O)C2` [1-((1R,4S)-7,7-dimethyl-2-oxobicyclo[2.2.1]heptan-1-yl)-N-(1-(4-fluorobenzyl)indolin-5-yl)methanesulfonamide], in series [1], the “Idrug/Ictl at 0 mV” value is on record as 1.16±0.07 and the “Idrug/Ictl at -40 mV” value was determined as 1.49±0.28. For the same compound, in series [2], the Solution stability result was “C (degradation > 40%)”. Also, the Photostability entry in series [3] was “C (degradation > 40%)”.

As for `COc1ccc(Cn2ccc3cc(NS(=O)(=O)C4CCCCC4)ccc32)cc1` [N-(1-(4-methoxybenzyl)-1H-indol-5-yl)cyclohexanesulfonamide], in series [1], the “Idrug/Ictl at 0 mV” value is 1.63±0.06 and the “Idrug/Ictl at -40 mV” value worked out at 2.00±0.36. Also, the Solution stability entry in series [2] is “A (degradation lower than 20%)”. For the same compound, the Photostability entry in series [3] is “A (degradation lower than 20%)”.

Take `CC(C)(C)CNC(=O)Nc1ccc2c(c1)CCN2Cc1ccc(F)cc1` [1-(1-(4-fluorobenzyl)indolin-5-yl)-3-neopentylurea]: in series [1], the “Idrug/Ictl at 0 mV” value turned out to be 1.40±0.08 and the “Idrug/Ictl at -40 mV” value came to 3.31±0.61. The Solution stability entry in series [2] is recorded as “A (degradation lower than 20%)”. Moreover, the Photostability entry in series [3] was “A (degradation lower than 20%)”.

As to `O=C(c1ccc(F)cc1)N1CCc2cc(NS(=O)(=O)C3CCCCC3)ccc21` [N-(1-(4-fluorobenzoyl)indolin-5-yl)cyclohexanesulfonamide], in series [1], the “Idrug/Ictl at 0 mV” value is 1.22±0.07 and the “Idrug/Ictl at -40 mV” value is on record as 1.85±0.30. In addition, the Solution stability result in series [2] is “A (degradation lower than 20%)”. Further, the Photostability result in series [3] is given as “B (20%< degradation<40%)”.

On to `CN1CCN(S(=O)(=O)Nc2ccc3c(c2)CCN3Cc2ccc(F)cc2)CC1` [N-(1-(4-fluorobenzyl)indolin-5-yl)-4-methylpiperazine-1-sulfonamide], for which, in series [1], the “Idrug/Ictl at 0 mV” value was 0.95±0.07 and the “Idrug/Ictl at -40 mV” value came to 1.25±0.19. Besides, the Solution stability entry in series [2] is given as “B (20%< degradation<40%)”. Besides, in series [3], the Photostability result is on record as “B (20%< degradation<40%)”.

Regarding `Nc1cc(NCc2ccc(C(F)(F)F)cc2)ccc1NS(=O)(=O)C1CCCCC1` [N-(2-amino-4-((4-(trifluoromethyl)benzyl)amino)phenyl)cyclohexanesulfonamide], in series [1], the “Idrug/Ictl at 0 mV” value stood at 0.19±0.1 and the “Idrug/Ictl at -40 mV” value is recorded as 1.5±0.2. In addition, in series [2], the Solution stability result was “C (degradation > 40%)”. In addition, the Photostability result in series [3] was “C (degradation > 40%)”.

In the case of `O=S(=O)(Nc1ccc2c(c1)CCN2Cc1ccc(F)cc1)c1ccccc1` [N-(1-(4-fluorobenzyl)indolin-5-yl)benzenesulfonamide], in series [1], the “Idrug/Ictl at 0 mV” value is recorded as 0.64±0.14 and the “Idrug/Ictl at -40 mV” value came out at 1.15±0.28. For the same compound, the Solution stability result in series [2] is recorded as “A (degradation lower than 20%)”. In addition, the Photostability result in series [3] is given as “B (20%< degradation<40%)”.

As to `CC(C)(C)CC(=O)Nc1ccc2c(ccn2Cc2ccc(C(F)(F)F)cc2)c1` [3,3-dimethyl-N-(1-(4-(trifluoromethyl)benzyl)-1H-indol-5-yl)butanamide], in series [1], the “Idrug/Ictl at 0 mV” value was 3.54±0.88 and the “Idrug/Ictl at -40 mV” value is listed as 8.23±1.36. In series [2], the Solution stability result is recorded as “A (degradation lower than 20%)”. Also, in series [3], the Photostability entry was “A (degradation lower than 20%)”.

On to `O=C(CC1CCCCC1)Nc1ccc2c(c1)CCN2Cc1ccc(F)cc1` [2-cyclohexyl-N-(1-(4-fluorobenzyl)indolin-5-yl)acetamide], for which, in series [1], the “Idrug/Ictl at 0 mV” value came out at 1.71±0.12 and the “Idrug/Ictl at -40 mV” value was found to be 2.37±0.40. Moreover, the Solution stability result in series [2] is on record as “A (degradation lower than 20%)”. In addition, the Photostability entry in series [3] is “A (degradation lower than 20%)”.

As to `CCCCS(=O)(=O)Nc1ccc2c(c1)CCN2Cc1ccc(F)cc1` [N-(1-(4-fluorobenzyl)indolin-5-yl)butane-1-sulfonamide], in series [1], the “Idrug/Ictl at 0 mV” value was found to be 1.55±0.12 and the “Idrug/Ictl at -40 mV” value is on record as 2.03±0.19. Further, in series [2], the Solution stability result was “C (degradation > 40%)”. Further, in series [3], the Photostability result is listed as “C (degradation > 40%)”.

Regarding `O=C(Cc1ccc(Cl)cc1)N1CCc2cc(NS(=O)(=O)C3CCCCC3)ccc21` [N-(1-(2-(4-chlorophenyl)acetyl)indolin-5-yl)cyclohexanesulfonamide], in series [1], the “Idrug/Ictl at 0 mV” value was determined as 1.18±0.08 and the “Idrug/Ictl at -40 mV” value stood at 1.45±0.08. The Solution stability result in series [2] is “A (degradation lower than 20%)”. In addition, the Photostability entry in series [3] was “B (20%< degradation<40%)”.

`CC(C)[C@H]1CC[C@H](C)C[C@@H]1OC(=O)Nc1ccc2c(c1)CCN2Cc1ccc(F)cc1` [(1S,2R,5S)-2-isopropyl-5-methylcyclohexyl (1-(4-fluorobenzyl)indolin-5-yl)carbamate]: in series [1], the “Idrug/Ictl at 0 mV” value turned out to be 0.48±0.07 and the “Idrug/Ictl at -40 mV” value amounted to 0.80±0.14. In addition, in series [2], the Solution stability entry is “A (degradation lower than 20%)”. In series [3], the Photostability entry is “B (20%< degradation<40%)”.
